Where “and” joins values, the source holds several entries; their conditions need not be identical. Equal entries are not always repeated. Structures can show the parent of a compound that is named as a salt. Where two headings read alike, the source gives them in different places.
How the values were obtained:
primary rat microglia [1] = system: primary rat microglia
[2] = system: fibrin- and LPS-induced microglia activation; experiment: cells; assay type: cell-based, rat
[3] = system: LPS-induced microglia activation; experiment: Image-based assay of LPS-induced microglia activation (HTS and dose response); assay type: cell-based, rat; settings: for inhibition at 10 µM: Rattus norvegicus, Microglia, read-out: LPS % inhibition
[4] = system: fibrin-induced microglia activation; experiment: Image-based assay of fibrin-induced microglia activation (HTS and dose response); assay type: cell-based, rat; settings: primary microglia HTS; for inhibition at 10 µM: Rattus norvegicus, Microglia, read-out: Fibrin % inhibition
primary rat microglia [5] = experiment: Cell toxicity (dead cells, size <150 μm2) in coated fibrin (cFib) assay; settings: primary microglia HTS;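 note: share of dead cells sized under 150 µm2 at 10 µM in fibrin-stimulated microglia HTS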
[6] = quadrant by fibrin and LPS inhibition, HTS at 10 μM
[7] = primary microglia HTS, LPS stimulation, compounds at 10 μM
[8] = fibrin stimulation, compounds at 10 μM
[9] = fibrin assay, dead cells (size <150 μm2)
[10] = classification by fibrin and LPS inhibition, HTS at 10 μM
[11] = fibrin assay, dead cells (size <150 μm2), compounds at 10 μM
[12] = classification by fibrin and LPS inhibition in HTS
[13] = fibrin stimulation, cell size >800 μm2 as marker of activation
[14] = fibrin stimulation, cell size <150 μm2 as marker of toxicity
[15] = primary microglia HTS, LPS stimulation, compounds at 10 μM, 10 µM
[16] = fibrin stimulation, compounds at 10 μM, 10 µM

Compound	LPS % cell toxicity (primary rat microglia [1])	Quadrant (FIG. 5b) [2, 6]	LPS % inhibition [3, 7]	Fibrin % cell toxicity (primary rat microglia [5]; [9])	Fibrin % cell toxicity (primary rat microglia [5]; [14])	LPS % cell toxicity (primary rat microglia [1]; rat)	further results
CC1=NN(c2ccccc2)C(=O)C1	0%	Q4	15%	1%			Fibrin % inhibition [4, 8]: −15%
CN(C)CC[C@@H](c1ccc(Br)cc1)c1ccccn1	0%		10%				Quadrant (FIG. 5b) [2, 10]: Q4; Fibrin % inhibition [4, 8]: 0%; Fibrin % cell toxicity (primary rat microglia [5]; [11]): 0%
O=C(O)CN(CCN(CC(=O)O)CC(=O)O)CCN(CC(=O)O)CC(=O)O	0%				0%		Quadrant (FIG. 5b) [2, 12]: Q4; LPS % inhibition [3]: −2%; Fibrin % inhibition [4, 13]: 11%
COc1ccc(C[C@H](N)C(=O)N[C@H]2[C@@H](O)[C@H](n3cnc4c(N(C)C)ncnc43)O[C@@H]2CO)cc1.Cl.Cl	52%	Q2	124%	66%			
CCCC(C(=O)OCCN(CC)CC)(c1ccccc1)c1ccccc1.Cl	0%				0%		Quadrant (FIG. 5b) [2, 12]: Q4; LPS % inhibition [3]: 5%; Fibrin % inhibition [4, 13]: −10%
C[C@H](CCC(=O)[O-])[C@H]1CC[C@H]2[C@@H]3C(=O)C[C@@H]4CC(=O)CC[C@]4(C)[C@H]3CC(=O)[C@]12C.[Na+]	1%				1%		Quadrant (FIG. 5b) [2, 12]: Q4; LPS % inhibition [3]: 28%; Fibrin % inhibition [4, 13]: 21%
Cl.NCC(O)c1ccc(O)cc1 (racemic)	0%	Q4	16%	1%			Fibrin % inhibition [4, 8]: −48%
CCC1(c2ccc(N)cc2)CCC(=O)NC1=O (racemic)	0%	Q4	6%	0%			Fibrin % inhibition [4, 8]: 3%
NCC(CC(=O)O)c1ccc(Cl)cc1 (racemic) [(±)-baclofen, Baclofen]	0%	Q4	9%	0%			Fibrin % inhibition [4, 8]: −8%
C=CC(N)CCC(=O)O (racemic) [(±)-gamma-vinyl Gaba, Vigabatrin]	0%	Q4	12%	1%			Fibrin % inhibition [4, 8]: 8%
NC(Cc1ccc(Cl)cc1)C(=O)O (racemic) [(±)-p-chlorophenylalanine, Fenclonine]	0%	Q4	5%	1%			Fibrin % inhibition [4, 8]: 16%
O=c1cc[nH]c(=S)[nH]1 [2-thiouracil]		Q4		1%		0%	inhibition at 10 µM [3, 7]: 7%; inhibition at 10 µM [4, 8]: -15%
CC(O)(CC(=O)O)CC(=O)O [3-Hydroxy-3-Methyl-Glutaric Acid]		Q4		0%		0%	inhibition at 10 µM [3, 7]: 8%; inhibition at 10 µM [4, 8]: 9%
CC(=O)Nc1cccc(O)c1 [3-acetamidophenol]		Q4		1%		0%	inhibition at 10 µM [3, 7]: 5%; inhibition at 10 µM [4, 8]: 4%
Nc1ccc(C(=O)O)cc1 [4-Aminobenzoic Acid]		Q4		1%		1%	inhibition at 10 µM [3, 7]: 13%; inhibition at 10 µM [4, 8]: -31%
CC(=O)Nc1ccc(C(=O)O)cc1 [4-acetamidobenzoic acid]		Q4		1%		0%	inhibition at 10 µM [3, 7]: 42%; inhibition at 10 µM [4, 8]: 32%
Nc1nc(NC2CC2)c2ncn([C@H]3C=C[C@@H](CO)C3)c2n1 [Abacavir Sulfate]		Q4		1%		0%	inhibition at 10 µM [3, 7]: 3%; inhibition at 10 µM [4, 8]: -2%
CC(=O)NCCCS(=O)(=O)[O-].CC(=O)NCCCS(=O)(=O)[O-].[Ca+2] [Acamprosate Calcium]	0%	Q4	22%	1%			Fibrin % inhibition [4, 8]: 12%
CO[C@H]1O[C@@H]2O[C@@]3(C)CC[C@H]4[C@H](C)CC[C@@H]([C@H]1C)[C@@]24OO3 [Artemether]		Q4		1% and 0%		0%	LPS % inhibition [3, 15]: 0% and 4%
COc1ccc(CC2c3cc(OC)c(OC)cc3CC[N+]2(C)CCC(=O)OCCCCCOC(=O)CC[N+]2(C)CCc3cc(OC)c(OC)cc3C2Cc2ccc(OC)c(OC)c2)cc1OC (centres unmarked) [Atracurium Besylate]		Q4		0% and 1%		0%	Fibrin % inhibition [4, 16]: −3% and 2%
C[C@H]1[C@H](NC(=O)/C(=N\OC(C)(C)C(=O)O)c2csc(N)n2)C(=O)N1S(=O)(=O)O [Aztreonam]		Q4		1% and 0%		0%	
CCCCOc1ccc(C(=O)CCN2CCCCC2)cc1 [Dyclonine]						0%	Quadrant (FIG. 5b) [2, 10]: Q4; LPS % inhibition [3, 15]: 12% and 5%; Fibrin % cell toxicity (primary rat microglia [5]; [11]): 1%
CCOC(=O)c1cncn1[C@H](C)c1ccccc1 [Etomidate]						0%	Quadrant (FIG. 5b) [2, 10]: Q4; Fibrin % inhibition [4, 16]: −19% and −24%; Fibrin % cell toxicity (primary rat microglia [5]; [11]): 0%
CSCC[C@H](NC(=O)[C@H](Cc1c[nH]c2ccccc12)NC(=O)CCNC(=O)OC(C)(C)C)C(=O)N[C@@H](CC(=O)O)C(=O)N[C@@H](Cc1ccccc1)C(N)=O [Pentagastrin]	1%				1%		
O=C(O)Cc1ccccc1 [Phenylacetic acid]					1%	0%	Quadrant (FIG. 5b) [2, 12]: Q4
COc1ccccc1OCC(O)CN1CCN(CC(=O)Nc2c(C)cccc2C)CC1 (centres unmarked) [Ranolazine, Ranolazine Dihydrochloride]	0%				0% and 1%		Quadrant (FIG. 5b) [2, 12]: Q4; LPS % inhibition [3]: 12% and 2%
CCN(C)C(=O)Oc1cccc([C@H](C)N(C)C)c1 [Rivastigmine]					1%	0%	Quadrant (FIG. 5b) [2, 12]: Q4; inhibition at 10 µM ([3]; 48 h): 5%
C#CCN(C)[C@H](C)Cc1ccccc1 [Selegiline]					0% and 1%	0%	Quadrant (FIG. 5b) [2, 12]: Q4
OC[C@@H](O)[C@@H](O)[C@H](O)[C@@H](O)CO [Sorbitol]					1% and 0%	0%	Quadrant (FIG. 5b) [2, 12]: Q4
C[C@@H](c1ncncc1F)[C@](O)(Cn1cncn1)c1ccc(F)cc1F [Voriconazole]						0%	Quadrant (FIG. 5b) ([2]; HTS of 1907 compounds, quadrant by fibrin and LPS inhibition): Q4; inhibition at 10 µM ([3]; primary microglia HTS, 10 μM, LPS-stimulated, cell size >800 μm^2 as marker of activation): 5%; inhibition at 10 µM ([4]; 10 μM, fibrin-stimulated, cell size >800 μm^2 as marker of activation): -42%

Reference: patent US20210330611A1, “THERAPY FOR NEUROLOGICAL DISEASES/DISORDERS” (priority 2020, published 2021)
